Laboratory results: publication PMC9127750, “Structure-based design of CDC42 effector interaction inhibitors for the treatment of cancer” (Cell reports, 2022)
Where “and” joins values, the source holds several entries; their conditions need not be identical. Identical values can stand only once.

System: WM3248 melanoma cells, 486 antibodies
Test: Reverse phase protein arrays (RPPA)
Type: cell-based, Human
Conditions: 10 uM
Text: Pellets were snap frozen in liquid nitrogen and shipped to MD Anderson Cancer Center core RPPA facility for RPPA analysis (Table S5). Three biological replicates for each sample were generated.
Nomenclatures on the RPPA heatmaps: name_of_antibody.species_of_antibody.status_of_antibody. V - antibody validated; C - validation of antibody in progress; Q - antibody nonspecific; E – under evaluation; antibodies raised in M - mouse, G - goat, R - rabbit, or T - rat.

CN(C)c1cccc(Nc2cc(-c3ccccc3)nc(C3CCNCC3)n2)c1 [ARN22089, N1,N1-dimethyl-N3-(6-phenyl-2-(piperidin-4-yl)pyrimidin-4-yl)benzene-1,3-diamine]
RPPA level MMP14.R.V (single replicates): 0.939 and 1.138
RPPA level MR1.M.C (single replicates): 1.059 and 1.005 and 1.063
RPPA level MRAP.R.C (single replicates): 1.023 and 1.051
RPPA level MSH2.R.C (single replicates): 0.977 and 1.024
RPPA level MSH6.R.C (single replicates): 0.940 and 0.976
RPPA level MSI2.R.C (single replicates): 1.020 and 0.933
RPPA level MTCO1.M.V (single replicates): 1.128 and 0.684
RPPA level MTSS1.M.C (single replicates): 1.023 and 1.031
RPPA level Mcl.1.R.V (single replicates): 0.823 and 0.973 and 0.929
RPPA level MelanA.R.C (single replicates): 0.752 and 0.988 and 1.034
RPPA level Melanoma.gp100.R.C (single replicates): 0.837 and 0.959 and 1.052
RPPA level Merlin.R.C (single replicates): 1.020 and 0.924
RPPA level Midkine.R.V (single replicates): 1.032 and 0.966 and 1.004
RPPA level Mitofusin.1.R.V (single replicates): 0.925 and 1.003 and 1.050
RPPA level Mitofusin.2.R.V (single replicates): 0.797 and 0.934 and 1.103
RPPA level Mnk1.R.V (single replicates): 0.917 and 0.929 and 1.022
RPPA level mTOR.R.V (single replicates): 1.016 and 0.918 and 0.854
RPPA level mTOR_pS2448.R.C (single replicates): 1.016 and 0.946 and 0.924
RPPA p21.R.C (single replicates): 1.203 and 0.773 and 1.055
RPPA p27.Kip1.R.C (single replicates): 1.051 and 0.999
RPPA p27_pT157.R.C (single replicates): 1.124 and 1.006
RPPA p27_pT198.R.V (single replicates): 0.989 and 1.466 and 1.049
RPPA p38.MAPK.R.V (single replicates): 0.899 and 0.964 and 1.062
RPPA p38.MAPK._pT180_Y182.R.V (single replicates): 0.872 and 0.913 and 0.950
RPPA p38.a.M.V (single replicates): 0.966 and 1.049
RPPA p44.42.MAPK.R.V (single replicates): 0.852 and 0.899
RPPA p53.R.C (single replicates): 0.871 and 0.886 and 0.966
RPPA p70.S6K1.R.V (single replicates): 1.046 and 0.827 and 0.882
RPPA p70.S6K_pT389.R.V (single replicates): 1.331 and 0.838 and 0.820
RPPA p90RSK_pT573.R.C (single replicates): 1.224 and 0.922 and 1.014
RPPA DNMT1.R.V (single samples): 1.052 and 0.962 and 1.050
RPPA DRP1.R.V (single samples): 1.012 and 0.957 and 0.978
RPPA DUSP4.R.V (single samples): 0.821 and 0.862 and 1.012
RPPA DUSP6.R.C (single samples): 1.063 and 0.981 and 0.768
RPPA DYRK1B.R.C (single samples): 1.057
RPPA Dvl3.R.V (single samples): 0.885 and 1.058 and 1.012
RPPA E2F1.R.V (single samples): 1.030 and 1.011
RPPA E.Cadherin.R.V (single samples): 0.941 and 1.144 and 1.080
RPPA EGFR.R.V (single samples): 0.824 and 0.981 and 0.985
RPPA EGFR_pY1068.R.C (single samples): 0.993 and 0.982
RPPA EGFR_pY1173.R.V (single samples): 0.968 and 1.017 and 0.987
RPPA EMA.M.C (single samples): 1.080 and 1.274
RPPA ENY2.M.C (single samples): 0.960 and 1.056
RPPA ER.a.R.V (single samples): 0.808 and 0.999 and 1.013
RPPA ER.a_pS118.R.V (single samples): 1.079 and 0.918 and 0.929
RPPA ERCC1.R.C (single samples): 1.102 and 1.123 and 0.975
RPPA ERCC5.R.C (single samples): 0.931 and 0.897 and 0.810
RPPA ERRalpha.R.V (single samples): 1.149 and 0.962
RPPA EVI1.R.V (single samples): 1.129 and 1.023
RPPA Elk1_pS383.R.C (single samples): 0.944 and 1.020 and 1.011
RPPA Enolase.1.R.V (single samples): 0.956 and 0.946
RPPA Enolase.2.R.V (single samples): 1.058 and 1.146 and 1.060
RPPA EphA2.R.V (single samples): 0.798 and 1.104 and 1.103
RPPA EphA2_pY588.R.C (single samples): 0.976 and 0.887
RPPA Erk5.R.V (single samples): 0.766 and 0.899 and 1.062
RPPA Ets.1.R.V (single samples): 1.143 and 1.054 and 1.017
RPPA FABP5.R.C (single samples): 0.909 and 1.032 and 1.076
RPPA FAK.R.C (single samples): 0.856 and 0.998
RPPA FAK_pY397.R.V (single samples): 1.077 and 0.996
RPPA FANCD2.R.V (single samples): 1.119 and 0.953 and 0.957
RPPA FASN.R.V (single samples): 1.052 and 0.855 and 0.656
RPPA FGF.basic.R.C (single samples): 0.867 and 1.005 and 0.952
RPPA FN14.R.C (single samples): 0.860 and 1.189 and 1.048
RPPA FOXM1.R.V (single samples): 1.131 and 0.950 and 0.985
RPPA FOXO3.R.V (single samples): 0.873 and 1.121 and 1.097
RPPA FRS2.alpha_pY196.R.V (single samples): 1.003 and 1.811
RPPA FTO.R.V (single samples): 1.061 and 0.989 and 0.960
RPPA Fibronectin.R.V (single samples): 0.546 and 0.983 and 0.999
RPPA FoxO3a_pS318_S321.R.C (single samples): 1.060 and 0.984
RPPA G6PD.R.V (single samples): 1.051 and 1.085 and 1.058
RPPA GATA3.M.V (single samples): 1.245 and 0.906 and 0.898
RPPA GATA6.R.V (single samples): 1.116 and 0.978
RPPA GCLC.R.C (single samples): 0.924 and 1.030
RPPA GCLM.R.V (single samples): 1.052 and 1.025 and 1.000
RPPA GCN5L2.R.V (single samples): 0.890 and 0.985
RPPA GGPS1.M.V (single samples): 0.998 and 0.974 and 1.046
RPPA GRB2.R.V (single samples): 0.833 and 0.898 and 0.998
RPPA GRB7.R.V (single samples): 0.772 and 1.100
RPPA GSK.3B.R.C (single samples): 0.886 and 0.913 and 0.953
RPPA GSK.3a.b.M.V (single samples): 1.163 and 1.006 and 1.033
RPPA GSK.3a.b_pS21_S9.R.V (single samples): 1.290 and 0.899 and 0.932
